Where “and” joins values, the source holds several entries; their conditions need not be identical. Equal entries are not always repeated. Where two headings read alike, the source gives them in different places. Blank lines part the entries; values can stand above or below the molecule they belong to.
Key:
[1] = Pharmacokinetic evaluation in plasma after IV and PO administration; type: in vivo; details: female Balb/c mice; for AUC(0-inf) / AUC(0-t) / C0 / clearance / half-life / MRT inf / MRT last / Vd / Cmax / Tmax / bioavailability: mouse; for MRT inf: read-out: MRT0-inf; for MRT last: read-out: MRT0-last; for Vd: read-out: Vdss
Procedure: Experimental Embodiment 3: Pharmacokinetic Evaluation
The test compound was mixed with […] (Cremophor EL), vortexed and sonicated to prepare a 1 mg/mL near-clear solution, which was filtered with a microporous filter membrane for future use. Female Balb/c mice of 18 to 20 grams were selected and the solution of the test compound was administered intravenously at a dose of 1 or 2 mg/kg. The test compound was mixed with an aqueous solution of 1% Tween 80, 9% polyethylene glycol 400, and 90% water, vortexed and sonicated to prepare 1 mg/mL near-clear solution, which was filtered with a microporous filter membrane for future use.
Female Balb/c mice of 18 to 20 grams were selected, and the solution of the test compound was orally administered at a dose of 2 or 10 mg/kg. The whole blood was collected at a certain time, and prepared into plasma. The drug concentration was analyzed by LC-MS/MS, and the pharmacokinetic parameters were calculated using Phoenix WinNonlin software (Pharsight Corporation, USA).

[2] = tested on: human breast cancer MCF-7 cell subcutaneous xenograft tumor; assay: In vivo pharmacodynamic study, MCF-7 subcutaneous xenograft tumor; parameters: species or system BALB/c nude mouse; details: for Tumor volume (27th day): mean ± SEM; for Tumor volume (day 0): day 0, mean ± SEM
Source text: Experimental Embodiment 4: In Vivo Pharmacodynamic Study on BALB/c Nude Mouse Model of Human Breast Cancer MCF-7 Cell Subcutaneous Xenograft Tumor
Experimental objective: To study the efficacy of the test compounds on human breast cancer MCF-7 cell subcutaneous xenograft tumor in BALB/c nude mouse model.
Experimental animals: Female BALB/c nude mice, 6-8 weeks old, weighing 18-22 grams; supplier: Shanghai Xipuer-Bikai Experimental Animal Co., Ltd.
Human breast cancer MCF-7 cells (ECACC, article number: 86012803) were subjected to in vitro monolayer culture under the conditions of EMEM (EBSS)+2 mM […]+1% Non Essential Amino Acids (NEAA) medium containing 10% fetal bovine serum, 100 U/mL penicillin and 100 μg/mL streptomycin, and 37° C., 5% CO2incubator. Conventional digestion treatment was carried out with trypsin-EDTA twice a week for cell passage. When the cell saturation was 80%-90%, and the quantity reached the requirement, the cells were collected, counted and inoculated.
Estrogen tablets (0.18 mg) were inoculated into the left back of each mouse three days before cell inoculation, 0.2 mL (1×10^7) MCF-7 cells (added with matrigel, volume ratio of 1:1) were subcutaneously inoculated into the right back of each mouse. When the average volume of tumor reached 142 mm^3, the mice were divided into groups and began to be administrated.
The test compounds were prepared into clear solutions of 0.75 mg/mL, 1.5 mg/mL and 3 mg/mL. The vehicles were 5% DMSO+30% polyethylene glycol 300+65% water.
The experimental indexes were used for investigating whether the growth of the tumors had been inhibited, delayed or cured. The diameters of the tumors were measured with vernier calipers twice a week. The calculation formula of the tumor volume was: V=0.5a×b^2, wherein a and b represent the long and short diameters of the tumor respectively.
The antitumor efficacy of the compound was evaluated by TGI (%) or relative tumor proliferation rate T/C (%). TGI (%) reflects the inhibition rate of the tumor growth. Calculation of TGI (%): TGI (%)=[1−(average tumor volume at the end of administration in the treatment group−average tumor volume at the beginning of administration in the treatment group)/(average tumor volume at the end of treatment in the vehicle control group−average tumor volume at the beginning of treatment in the vehicle control group)]×[…].
Relative tumor proliferation rate T/C (%): The calculation formula was as follows: T/C %=TRTV/CRTV at the beginning of the treatment (TRTV: treatment group RTV; CRTV: negative control group RTV). The relative tumor volume (RTV) was calculated according to the results of tumor measurement. The calculation formula was RTV=Vt/V0, wherein V0 is the average tumor volume measured during administration of the groups (i.e. d0), and Vt is the average tumor volume during a certain measurement, the TRTV and CRTV were taken on the same day.
Statistical analysis included the mean and standard error (SEM) of tumor volume at each time point in each group. […] The comparison between two groups was analyzed by T-test, and the comparison between three or more groups was analyzed by one-way ANOVA.

Tlast ([1]; IV 1 mg/kg): 8.00 h
AUCExtra ([1]; IV 2 mg/kg): 0.384%
AUMCExtra ([1]; IV 2 mg/kg): 2.95%
Tlast ([1]; IV 2 mg/kg): 8.00 h
AUCExtra ([1]; PO 2 mg/kg): 0.0496%
AUMCExtra ([1]; PO 2 mg/kg): 0.347%
Tlast ([1]; PO 2 mg/kg): 12.0 h
AUCExtra ([1]; PO 10 mg/kg): 0.156%
AUMCExtra ([1]; PO 10 mg/kg): 1.82%
Tlast ([1]; PO 10 mg/kg): 24.0 h
AUC(0-inf) ([1]; IV 1 mg/kg): 4.28 µM·h
AUC(0-t) ([1]; IV 1 mg/kg): 4.27 µM·h
C0 ([1]; IV 1 mg/kg): 4.79 µM
clearance ([1]; IV 1 mg/kg): 8.41 mL/min/kg
half-life ([1]; IV 1 mg/kg): 0.967 h
MRT inf ([1]; IV 1 mg/kg): 1.88 h
MRT last ([1]; IV 1 mg/kg): 0.268 h
Vd ([1]; IV 1 mg/kg): 0.677 L/kg
AUC(0-inf) ([1]; IV 2 mg/kg): 8.91 µM·h
AUC(0-t) ([1]; IV 2 mg/kg): 8.88 µM·h
C0 ([1]; IV 2 mg/kg): 8.07 µM
clearance ([1]; IV 2 mg/kg): 8.08 mL/min/kg
half-life ([1]; IV 2 mg/kg): 1.05 h
MRT inf ([1]; IV 2 mg/kg): 1.24 h
MRT last ([1]; IV 2 mg/kg): 1.2 h
Vd ([1]; IV 2 mg/kg): 0.599 L/kg
AUC(0-inf) ([1]; PO 2 mg/kg): 7.24 µM·h
AUC(0-t) ([1]; PO 2 mg/kg): 8.24 µM·h
Cmax ([1]; PO 2 mg/kg): 4.37 µM
Tmax ([1]; PO 2 mg/kg): 0.5 h
bioavailability ([1]; PO 2 mg/kg): 96.2%
half-life ([1]; PO 2 mg/kg): 1.14 h
MRT inf ([1]; PO 2 mg/kg): 1.95 h
MRT last ([1]; PO 2 mg/kg): 1.95 h
AUC(0-inf) ([1]; PO 10 mg/kg): 41.5 µM·h
AUC(0-t) ([1]; PO 10 mg/kg): 41.4 µM·h
Cmax ([1]; PO 10 mg/kg): 17 µM
Tmax ([1]; PO 10 mg/kg): 0.25 h
bioavailability ([1]; PO 10 mg/kg): 93.1%
half-life ([1]; PO 10 mg/kg): 3.46 h
MRT inf ([1]; PO 10 mg/kg): 2.5 h
MRT last ([1]; PO 10 mg/kg): 2.45 h
Compound: CNC(=O)c1cccc(-c2ccc3c(N4CCOC[C@@H]4C)nc(N4CCOC[C@@H]4C)nc3n2)c1 [AZD2014, reference compound]
T/C ([2]; 7.5 mg/kg): 53.95%
TGI ([2]; 7.5 mg/kg): 61.10%
RTV (27th day) ([2]; 7.5 mg/kg): 2.25 ± 0.47
Tumor volume (27th day) ([2]; 7.5 mg/kg): 315 ± 65 mm^3
Tumor volume (day 0) ([2]; 7.5 mg/kg): 142 ± 9 mm^3
T/C ([2]; 15 mg/kg): 20.36%
TGI ([2]; 15 mg/kg): 104% and 104.37%
difference compared with the vehicle control group ([2]; 15 mg/kg): significant difference
RTV (27th day) ([2]; 15 mg/kg): 0.85 ± 0.26
Tumor volume (27th day) ([2]; 15 mg/kg): 121 ± 41 mm^3
Tumor volume (day 0) ([2]; 15 mg/kg): 141 ± 8 mm^3

AUCExtra ([1]; IV 2 mg/kg): 0.0592%
AUMCExtra ([1]; IV 2 mg/kg): 0.616%
Tlast ([1]; IV 2 mg/kg): 12.0 h
AUCExtra ([1]; PO 10 mg/kg): 0.414%
AUMCExtra ([1]; PO 10 mg/kg): 4.62%
Tlast ([1]; PO 10 mg/kg): 24.0 h
AUC(0-inf) ([1]; IV 2 mg/kg): 13.4 µM·h
AUC(0-t) ([1]; IV 2 mg/kg): 13.4 µM·h
C0 ([1]; IV 2 mg/kg): 12.2 µM
clearance ([1]; IV 2 mg/kg): 5.08 mL/min/kg
half-life ([1]; IV 2 mg/kg): 1.47 h
MRT inf ([1]; IV 2 mg/kg): 1.36 h
MRT last ([1]; IV 2 mg/kg): 1.35 h
Vd ([1]; IV 2 mg/kg): 0.414 L/kg
AUC(0-inf) ([1]; PO 10 mg/kg): 60.3 µM·h
AUC(0-t) ([1]; PO 10 mg/kg): 60.1 µM·h
Cmax ([1]; PO 10 mg/kg): 27.9 µM
Tmax ([1]; PO 10 mg/kg): 0.25 h
bioavailability ([1]; PO 10 mg/kg): 89.9%
half-life ([1]; PO 10 mg/kg): 2.61 h
MRT inf ([1]; PO 10 mg/kg): 2.49 h
MRT last ([1]; PO 10 mg/kg): 2.39 h
Compound: CNC(=O)c1cccc(-c2ccc3c(N4CCOC[C@@H]4C)nc(N4CCOC5(CCC5)C4)nc3n2)c1 [Embodiment 23]
T/C ([2]; 7.5 mg/kg): 83.52%
TGI ([2]; 7.5 mg/kg): 22.14%
RTV (27th day) ([2]; 7.5 mg/kg): 3.48 ± 0.37
Tumor volume (27th day) ([2]; 7.5 mg/kg): 489 ± 51 mm^3
Tumor volume (day 0) ([2]; 7.5 mg/kg): 142 ± 9 mm^3
T/C ([2]; 15 mg/kg): 54.13%
TGI ([2]; 15 mg/kg): 59.05%
RTV (27th day) ([2]; 15 mg/kg): 2.26 ± 0.48
Tumor volume (27th day) ([2]; 15 mg/kg): 324 ± 79 mm^3
Tumor volume (day 0) ([2]; 15 mg/kg): 141 ± 9 mm^3
T/C ([2]; 30 mg/kg): 25.50%
TGI ([2]; 30 mg/kg): 98.33%
difference compared with the vehicle control group ([2]; 30 mg/kg): significant difference
RTV (27th day) ([2]; 30 mg/kg): 1.06 ± 0.17
Tumor volume (27th day) ([2]; 30 mg/kg): 150 ± 26 mm^3
Tumor volume (day 0) ([2]; 30 mg/kg): 141 ± 8 mm^3
TGI ([2]; 30 mg/kg, listed as embodiment 23): 98%

AUCExtra ([1]; IV 2 mg/kg): 0.0469%
AUMCExtra ([1]; IV 2 mg/kg): 0.400%
Tlast ([1]; IV 2 mg/kg): 12.0 h
AUCExtra ([1]; PO 10 mg/kg): 0.225%
AUMCExtra ([1]; PO 10 mg/kg): 1.02%
Tlast ([1]; PO 10 mg/kg): 12.0 h
AUC(0-inf) ([1]; IV 2 mg/kg): 9.37 µM·h
AUC(0-t) ([1]; IV 2 mg/kg): 9.73 µM·h
C0 ([1]; IV 2 mg/kg): 8.24 µM
clearance ([1]; IV 2 mg/kg): 7.72 mL/min/kg
half-life ([1]; IV 2 mg/kg): 1.1 h
MRT inf ([1]; IV 2 mg/kg): 1.6 h
MRT last ([1]; IV 2 mg/kg): 1.59 h
Vd ([1]; IV 2 mg/kg): 0.739 L/kg
AUC(0-inf) ([1]; PO 10 mg/kg): 42 µM·h
AUC(0-t) ([1]; PO 10 mg/kg): 41.9 µM·h
Cmax ([1]; PO 10 mg/kg): 12.8 µM
Tmax ([1]; PO 10 mg/kg): 0.25 h
bioavailability ([1]; PO 10 mg/kg): 89.5%
half-life ([1]; PO 10 mg/kg): 1.22 h
MRT inf ([1]; PO 10 mg/kg): 3.04 h
MRT last ([1]; PO 10 mg/kg): 3.02 h
Compound: C[C@H]1COCCN1c1nc(N2CCOC3(CC3)C2)nc2nc(-c3cccc(C(N)=O)c3)ccc12 [Embodiment 51]
T/C ([2]; 15 mg/kg): 57.84%
TGI ([2]; 15 mg/kg): 59.27%
RTV (27th day) ([2]; 15 mg/kg): 2.41 ± 0.36
Tumor volume (27th day) ([2]; 15 mg/kg): 323 ± 25 mm^3
Tumor volume (day 0) ([2]; 15 mg/kg): 142 ± 11 mm^3

Source: US11377444B2, “Pyridopyrimidine compounds acting as mTORC 1/2 dual inhibitors” (MEDSHINE DISCOVERY INC., priority 2017, dated 2022)
